Where “and” joins values, the source holds several entries; their conditions need not be identical. Equal entries are not always repeated.
Tested on: 855422-203-R-J1-PDC complex spheroid growth
Assay: Anticancer human tumor 855422-203-R-J1-PDC patient-derived bladder carcinoma cell line growth inhibition [AhR]
Conditions: for viability, T/C: stronger effect = lower value; active = viability on the fitted dose curve at most 10% of control; inactive = the rest
Outline: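 Spheroids combined tumor cells with HUVEC endothelial cells and human MSCs as stroma. AhR antagonists were paired with standard or investigational drugs, each dosed in half-log steps down from near clinical Cmax, or from 10 microM where Cmax was unknown.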

[1] = curve of first compound, second compound 0.1 µM
[2] = curve of first compound, second compound 0.316 µM
[3] = curve of first compound, second compound 1 µM
[4] = curve of first compound, second compound 3.16 µM
[5] = curve of first compound, second compound 10 µM
[6] = second compound 0.1 µM, first compound 0.0316 µM
[7] = second compound 0.1 µM, first compound 0.1 µM
[8] = second compound 0.1 µM, first compound 0.316 µM
[9] = second compound 0.1 µM, first compound 1 µM
[10] = second compound 0.1 µM, first compound 3.16 µM
[11] = second compound 0.1 µM, first compound 10 µM
[12] = second compound 0.316 µM, first compound 0.0316 µM
[13] = second compound 0.316 µM, first compound 0.1 µM
[14] = second compound 0.316 µM, first compound 0.316 µM
[15] = second compound 0.316 µM, first compound 1 µM
[16] = second compound 0.316 µM, first compound 3.16 µM
[17] = second compound 0.316 µM, first compound 10 µM
[18] = second compound 1 µM, first compound 0.0316 µM
[19] = second compound 1 µM, first compound 0.1 µM
[20] = second compound 1 µM, first compound 0.316 µM
[21] = second compound 1 µM, first compound 1 µM
[22] = second compound 1 µM, first compound 3.16 µM
[23] = second compound 1 µM, first compound 10 µM
[24] = second compound 3.16 µM, first compound 0.0316 µM
[25] = second compound 3.16 µM, first compound 0.1 µM
[26] = second compound 3.16 µM, first compound 0.316 µM
[27] = second compound 3.16 µM, first compound 1 µM
[28] = second compound 3.16 µM, first compound 3.16 µM
[29] = second compound 3.16 µM, first compound 10 µM
[30] = second compound 10 µM, first compound 0.0316 µM
[31] = second compound 10 µM, first compound 0.1 µM
[32] = second compound 10 µM, first compound 0.316 µM
[33] = second compound 10 µM, first compound 1 µM
[34] = second compound 10 µM, first compound 3.16 µM
[35] = second compound 10 µM, first compound 10 µM
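Also: spheroids exposed to agents for seven days before readout.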
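For viability, T/C in this document: percent of DMSO vehicle control luminescence viability.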

Cn1ncnc1C1c2n[nH]c(=O)c3cc(F)cc(c23)NC1c1ccc(F)cc1 (configuration not stated)
inactive: viability, T/C (compound 0.000316 µM) 98.3% and 105% and 99% | viability, T/C (compound 0.001 µM) 92.9% and 104% and 110% | viability, T/C (compound 0.00316 µM) 86.6% and 106% and 105% | viability, T/C (compound 0.01 µM) 104% and 98.8% and 103% | viability, T/C (compound 0.0316 µM) 99.4% and 102% and 95.6% | viability, T/C (compound 0.1 µM) 82.4% and 101% and 98.5%
> 100 nM: IC50 (curve of compound)

COc1cc(C2c3cc4c(cc3C(OC3OC5COC(C)OC5C(O)C3O)C3COC(=O)C23)OCO4)cc(OC)c1O (configuration not stated)
inactive: viability, T/C (compound 0.0316 µM) 96.6% and 94.9% and 94.2% | viability, T/C (compound 0.1 µM) 98.4% and 97.4% and 106% | viability, T/C (compound 0.316 µM) 61% and 81.5% and 67.7% | viability, T/C (compound 1 µM) 14.2% and 22% and 29.3%
4.28% and 5.57% and 7.14%: viability, T/C (compound 10 µM)
9.05% and 11.6% and 17.3%: viability, T/C (compound 3.16 µM)
417 nM and 584 nM and 553 nM: IC50 (curve of compound)

Nc1ccn(C2OC(CO)C(O)C2(F)F)c(=O)n1 (configuration not stated)
55 nM and 212 nM and 290 nM: IC50 (curve of compound)
inactive: viability, T/C (compound 0.0316 µM) 73.2% and 108% and 116% | viability, T/C (compound 0.1 µM) 24.6% and 89.1% and 98.4% | viability, T/C (compound 0.316 µM) 14.1% and 28.8% and 44% | viability, T/C (compound 1 µM) 15.1% and 17.2% and 34.1% | viability, T/C (compound 3.16 µM) 11.1% and 14.4% and 27.2% | viability, T/C (compound 10 µM) 7.1% and 9.36% and 17.2%

Cc1ccccc1N=Nc1ccc(NC(=O)c2ccnn2C)c(C)c1
> 10000 nM: IC50 (compound alone, run of 06/14/2022)
inactive: viability, T/C (compound 0.1 µM) 98.6% [middle of 20 runs] | viability, T/C (compound 0.316 µM) 98.5% [middle of 20 runs] | viability, T/C (compound 1 µM) 101% [middle of 20 runs] | viability, T/C (compound 3.16 µM) 94.4% [middle of 20 runs] | viability, T/C (compound 10 µM) 80.9% [middle of 20 runs]

Nc1ccn(C2OC(CO)C(O)C2(F)F)c(=O)n1 (configuration not stated) + Cc1ccccc1N=Nc1ccc(NC(=O)c2ccnn2C)c(C)c1
265 nM: IC50 [1]
293 nM: IC50 [2]
167 nM: IC50 [4]
73.1 nM: IC50 [5]
inactive: viability, T/C [6] 120% | viability, T/C [7] 96.4% | viability, T/C [8] 40.4% | viability, T/C [9] 29.2% | viability, T/C [10] 25.9% | viability, T/C [11] 16.5% | viability, T/C [12] 113% | viability, T/C [13] 89.3% | viability, T/C [14] 46.5% | viability, T/C [15] 28.2% | viability, T/C [16] 23.4% | viability, T/C [17] 20.7% | viability, T/C [18] 109% | viability, T/C [19] 84.5% | viability, T/C [20] 39.2% | viability, T/C [21] 30.1% | viability, T/C [22] 23.8% | viability, T/C [23] 19.1% | viability, T/C [24] 84.5% | viability, T/C [25] 63.3% | viability, T/C [26] 31.9% | viability, T/C [27] 29.6% | viability, T/C [28] 22.3% | viability, T/C [29] 17.1% | viability, T/C [30] 64% | viability, T/C [31] 45.8% | viability, T/C [32] 29.6% | viability, T/C [33] 27.7% | viability, T/C [34] 22.1% | viability, T/C [35] 18%
248 nM: IC50 [3]

COc1cc(Nc2ncc3c(n2)-c2ccc(Cl)cc2C(c2c(F)cccc2OC)=NC3)ccc1C(=O)O + CC(CO)NC(=O)c1cc(-c2ccc(Cl)cc2)nn(-c2cnn(C)c2)c1=O
inactive: viability, T/C [6] 97% | viability, T/C [7] 93.6% | viability, T/C [8] 66% | viability, T/C [9] 57.6% | viability, T/C [10] 52.2% | viability, T/C [11] 46.1% | viability, T/C [12] 87.1% | viability, T/C [13] 107% | viability, T/C [14] 66.2% | viability, T/C [15] 55.2% | viability, T/C [16] 48% | viability, T/C [17] 48.1% | viability, T/C [18] 93.5% | viability, T/C [19] 104% | viability, T/C [20] 66.2% | viability, T/C [21] 61% | viability, T/C [22] 48.1% | viability, T/C [23] 45.9% | viability, T/C [24] 88.9% | viability, T/C [25] 90.6% | viability, T/C [26] 60.2% | viability, T/C [27] 58.5% | viability, T/C [28] 46.4% | viability, T/C [29] 47.2% | viability, T/C [30] 94.7% | viability, T/C [31] 79.9% | viability, T/C [32] 60.8% | viability, T/C [33] 50.6% | viability, T/C [34] 55.5% | viability, T/C [35] 46.3%
> 10000 nM: IC50 [1] | IC50 [3] | IC50 [4] | IC50 [5]
10000 nM: IC50 [2]

Source: PubChem BioAssay AID1919005 (Molecular Pharmacology Branch, DTP, NCI, 2023)
